In patent publication US6511961B1, “Cyclic peptides and medicinal use thereof” (Toray Industries, Inc., priority 1997, dated 2003):
Read-outs that look alike come from different tables or passages of the source.

Settings: 20-membered ring
[1] = disulfide bond, K3[Fe(CN)6]/NH3 pH 7.5-8, water
[2] = amide bond, with chain assembly

## CC[C@H](C)[C@@H]1NC(=O)[C@@H](N)CSSC[C@@H](C(=O)O)NC(=O)[C@@H](c2ccccc2)NC(=O)[C@H](Cc2c[nH]cn2)NC(=O)[C@H](CC(=O)O)NC1=O [C*IDHdPhgC*]
From H-Cys(Acm)-Ile-Asp-His-dPhg-Cys(Acm)-OH, disulfide bond, AgOTf/anisole/TFA, then DMSO/HCl, 50% DMSO-1N HCl, 2 steps
  ring closure, yield after HPLC: 37%

## CC[C@H](C)[C@@H]1NC(=O)[C@@H](N)CSSC[C@@H](C(=O)O)NC(=O)[C@H](CC(C)C)NC(=O)[C@H](CCc2ccccc2)NC(=O)[C@H](CC(=O)O)NC1=O [C*IDHphLC*]
From H-Cys(Acm)-Ile-Asp-Hph-Leu-Cys(Acm)-OH, disulfide bond, AgOTf/anisole/TFA, then DMSO/HCl, 50% DMSO-1N HCl, 2 steps
  ring closure, yield after HPLC: 38%

## CC[C@H](C)[C@@H]1NC(=O)[C@@H](N)CSSC[C@@H](C(=O)O)NC(=O)[C@H](CC(C)C)NC(=O)[C@H](c2ccccc2)NC(=O)[C@H](CC(=O)O)NC1=O [C*IDPhgLC*]
From H-Cys(Acm)-Ile-Asp-Phg-Leu-Cys(Acm)-OH, disulfide bond, AgOTf/anisole/TFA, then DMSO/HCl, 50% DMSO-1N HCl, 2 steps
  ring closure, yield after HPLC: 48%

## CC[C@H](C)[C@@H]1NC(=O)[C@@H](N)CSSC[C@@H](C(=O)O)NC(=O)[C@H](CC(C)C)NC(=O)[C@H](C(C)(C)C)NC(=O)[C@H](CC(=O)O)NC1=O [C*IDTleLC*]
From H-Cys(Acm)-Ile-Asp-Tle-Leu-Cys(Acm)-OH, disulfide bond, AgOTf/anisole/TFA, then DMSO/HCl, 50% DMSO-1N HCl, 2 steps
  ring closure, yield after HPLC: 23%

## CC[C@H](C)[C@@H]1NC(=O)[C@@H](N)CSSC[C@@H](C(=O)O)NC(=O)[C@H](CC(C)C)NC(=O)[C@H](Cc2c[nH]c3ccccc23)NC(=O)[C@H](CC(=O)O)NC1=O [C*IDWLC*]
From H-Cys(Acm)-Ile-Asp-Trp-Leu-Cys(Acm)-OH, disulfide bond, AgOTf/anisole/TFA, then DMSO/HCl, 50% DMSO-1N HCl, 2 steps
  ring closure, yield after HPLC: 47%

## CC[C@H](C)[C@@H]1NC(=O)[C@@H](N)CSSC[C@@H](C(=O)O)NC(=O)[C@H](CC(C)C)NC(=O)[C@@H](Cc2c[nH]cn2)NC(=O)[C@H](CC(=O)O)NC1=O [C*IDdHLC*]
From H-Cys(Acm)-Ile-Asp-dHis-Leu-Cys(Acm)-OH, disulfide bond, AgOTf/anisole/TFA, then DMSO/HCl, 50% DMSO-1N HCl, 2 steps
  ring closure, yield after HPLC: 74%

## CC[C@H](C)[C@@H]1NC(=O)[C@@H](N)CSSC[C@@H](C(=O)O)NC(=O)[C@H](CC(C)C)NC(=O)[C@@H](c2ccccc2)NC(=O)[C@H](CC(=O)O)NC1=O [C*IDdPhgLC*]
From H-Cys(Acm)-Ile-Asp-dPhg-Leu-Cys(Acm)-OH, disulfide bond, AgOTf/anisole/TFA, then DMSO/HCl, 50% DMSO-1N HCl, 2 steps
  ring closure, yield after HPLC: 8%

## CC[C@H](C)[C@@H]1NC(=O)[C@@H](N)CSSC[C@@H](C(=O)O)NC(=O)[C@H](CC(C)C)NC(=O)[C@H](Cc2c[nH]cn2)NC(=O)[C@H](CCC(=O)O)NC1=O [C*IEHLC*]
From H-Cys(Acm)-Ile-Glu-His-Leu-Cys(Acm)-OH, disulfide bond, AgOTf/anisole/TFA, then DMSO/HCl, 50% DMSO-1N HCl, 2 steps
  ring closure, yield after HPLC: 71%

## CC[C@H](C)[C@@H]1NC(=O)[C@@H](N)CSSC[C@@H](C(=O)O)NC(=O)[C@H](CC(C)C)NC(=O)[C@H](Cc2c[nH]cn2)NC(=O)[C@H](CCO)NC1=O [C*IHseHLC*]
From H-Cys(Acm)-Ile-Hse-His-Leu-Cys(Acm)-OH, disulfide bond, AgOTf/anisole/TFA, then DMSO/HCl, 50% DMSO-1N HCl, 2 steps
  ring closure, yield after HPLC: 56%

## CC[C@H](C)[C@@H]1NC(=O)[C@@H](N)CSSC[C@@H](C(=O)O)NC(=O)[C@H](CC(C)C)NC(=O)[C@H](Cc2c[nH]cn2)NC(=O)[C@H](CCS(C)(=O)=O)NC1=O [C*IMet(O2)HLC*]
From H-Cys(Acm)-Ile-Met(O2)-His-Leu-Cys(Acm)-OH, disulfide bond, AgOTf/anisole/TFA, then DMSO/HCl, 50% DMSO-1N HCl, 2 steps
  ring closure, yield after HPLC: 68%

## CC[C@H](C)[C@@H]1NC(=O)[C@@H](N)CSSC[C@@H](C(=O)O)NC(=O)[C@H](CC(C)C)NC(=O)[C@H](Cc2c[nH]cn2)NC(=O)[C@H](CC(N)=O)NC1=O [C*INHLC*]
From H-Cys(Acm)-Ile-Asn-His-Leu-Cys(Acm)-OH, disulfide bond, AgOTf/anisole/TFA, then DMSO/HCl, 50% DMSO-1N HCl, 2 steps
  ring closure, yield after HPLC: 85%

## CC[C@H](C)[C@@H]1NC(=O)[C@@H](N)CSSC[C@@H](C(N)=O)NC(=O)[C@H](CC(C)C)NC(=O)[C@H](Cc2c[nH]cn2)NC(=O)[C@H](CC(N)=O)NC1=O [C*INHLC*—NH2]
From H-Cys(Acm)-Ile-Asn-His-Leu-Cys(Acm)-NH2, disulfide bond, AgOTf/anisole/TFA, then DMSO/HCl, 50% DMSO-1N HCl, 2 steps
  ring closure, yield after HPLC: 18%

## CC[C@H](C)[C@@H]1NC(=O)[C@@H](N)CSSC[C@@H](C(=O)O)NC(=O)[C@H](CC(C)C)NC(=O)[C@H](Cc2c[nH]cn2)NC(=O)[C@H](COC)NC1=O [C*IS(OMe)HLC*]
From H-Cys(Acm)-Ile-Ser(OMe)-His-Leu-Cys(Acm)-OH, disulfide bond, AgOTf/anisole/TFA, then DMSO/HCl, 50% DMSO-1N HCl, 2 steps
  ring closure, yield after HPLC: 52%

## CC[C@H](C)[C@@H]1NC(=O)[C@@H](N)CSSC[C@@H](C(=O)O)NC(=O)[C@H](CC(C)C)NC(=O)[C@H](Cc2c[nH]cn2)NC(=O)[C@H](Cc2ccc(O)cc2)NC1=O [C*IYHLC*]
From H-Cys(Acm)-Ile-Tyr-His-Leu-Cys(Acm)-OH, disulfide bond, AgOTf/anisole/TFA, then DMSO/HCl, 50% DMSO-1N HCl, 2 steps
  ring closure, yield after HPLC: 52%

## CC(C)C[C@@H]1NC(=O)[C@H](Cc2c[nH]cn2)NC(=O)[C@H](CC(=O)O)NC(=O)[C@H](c2ccccc2)NC(=O)[C@@H](N)CSSC[C@@H](C(=O)O)NC1=O [C*PhgDHLC*]
From H-Cys(Acm)-Phg-Asp-His-Leu-Cys(Acm)-OH, disulfide bond, AgOTf/anisole/TFA, then DMSO/HCl, 50% DMSO-1N HCl, 2 steps
  ring closure, yield after HPLC: 64%

## CC(C)C[C@@H]1NC(=O)[C@H](Cc2c[nH]cn2)NC(=O)[C@H](CC(=O)O)NC(=O)[C@@H]2Cc3ccccc3CN2C(=O)[C@@H](N)CSSC[C@@H](C(=O)O)NC1=O [C*TicDHLC*]
From H-Cys(Acm)-Tic-Asp-His-Leu-Cys(Acm)-OH, disulfide bond, AgOTf/anisole/TFA, then DMSO/HCl, 50% DMSO-1N HCl, 2 steps
  ring closure, yield after HPLC: 30%

## CC(C)C[C@@H]1NC(=O)[C@H](Cc2c[nH]cn2)NC(=O)[C@H](CC(=O)O)NC(=O)[C@H](C(C)(C)C)NC(=O)[C@@H](N)CSSC[C@@H](C(=O)O)NC1=O [C*TleDHLC*]
From H-Cys(Acm)-Tle-Asp-His-Leu-Cys(Acm)-OH, disulfide bond, AgOTf/anisole/TFA, then DMSO/HCl, 50% DMSO-1N HCl, 2 steps
  ring closure, yield after HPLC: 69%

## CC(C)C[C@@H]1NC(=O)[C@H](Cc2c[nH]cn2)NC(=O)[C@H](CC(=O)O)NC(=O)[C@H](C(C)C)NC(=O)[C@@H](N)CSSC[C@@H](C(=O)O)NC1=O [C*VDHLC*]
From H-Cys(Acm)-Val-Asp-His-Leu-Cys(Acm)-OH, disulfide bond, AgOTf/anisole/TFA, then DMSO/HCl, 50% DMSO-1N HCl, 2 steps
  ring closure, yield after HPLC: 75%

## CC[C@@H](C)[C@H]1NC(=O)[C@@H](N)CSSC[C@@H](C(=O)O)NC(=O)[C@H](CC(C)C)NC(=O)[C@H](Cc2c[nH]cn2)NC(=O)[C@H](CC(=O)O)NC1=O [C*dIDHLC*]
From H-Cys(Acm)-dIle-Asp-His-Leu-Cys(Acm)-OH, disulfide bond, AgOTf/anisole/TFA, then DMSO/HCl, 50% DMSO-1N HCl, 2 steps
  ring closure, yield after HPLC: 72%

## CC(C)C[C@@H]1NC(=O)[C@H](CO)NC(=O)[C@H](CC(=O)O)NC(=O)[C@@H](CC(C)C)NC(=O)[C@@H](N)CSSC[C@@H](C(=O)O)NC1=O [C*dLDSLC*]
From H-Cys(Acm)-dLeu-Asp-Ser-Leu-Cys(Acm)-OH, disulfide bond, AgOTf/anisole/TFA, then DMSO/HCl, 50% DMSO-1N HCl, 2 steps
  ring closure, yield after HPLC: 77%

## CC(C)C[C@@H]1NC(=O)[C@@H](CO)NC(=O)[C@H](CC(=O)O)NC(=O)[C@@H](CC(C)C)NC(=O)[C@@H](N)CSSC[C@@H](C(=O)O)NC1=O [C*dLDdSLC*]
From H-Cys(Acm)-dLeu-Asp-dSer-Leu-Cys(Acm)-OH, disulfide bond, AgOTf/anisole/TFA, then DMSO/HCl, 50% DMSO-1N HCl, 2 steps
  ring closure, yield after HPLC: 62%

## CC(C)C[C@@H]1NC(=O)[C@H](Cc2c[nH]cn2)NC(=O)[C@H](CC(=O)O)NC(=O)[C@@H](c2ccccc2)NC(=O)[C@@H](N)CSSC[C@@H](C(=O)O)NC1=O [C*dPhgDHLC*]
From H-Cys(Acm)-dPhg-Asp-His-Leu-Cys(Acm)-OH, disulfide bond, AgOTf/anisole/TFA, then DMSO/HCl, 50% DMSO-1N HCl, 2 steps
  ring closure, yield after HPLC: 55%

## CC[C@H](C)[C@@H]1NC(=O)CCSSC[C@@H](C(=O)O)NC(=O)[C@H](CC(C)C)NC(=O)[C@H](Cc2c[nH]cn2)NC(=O)[C@H](CC(=O)O)NC1=O [Mpr*IDHLC*]
From Mpr(Acm)-Ile-Asp-His-Leu-Cys(Acm)-OH, disulfide bond, AgOTf/anisole/TFA, then DMSO/HCl, 50% DMSO-1N HCl, 2 steps
  ring closure, yield after HPLC: 33%

## CC[C@H](C)[C@@H]1NC(=O)[C@@H](N)C(C)(C)SSC[C@@H](C(=O)O)NC(=O)[C@H](CC(C)C)NC(=O)[C@H](Cc2c[nH]cn2)NC(=O)[C@H](CC(=O)O)NC1=O [Pen*IDHLC*]
From H-Pen(Acm)-Ile-Asp-His-Leu-Cys(Acm)-OH, disulfide bond, AgOTf/anisole/TFA, then DMSO/HCl, 50% DMSO-1N HCl, 2 steps
  ring closure, yield after HPLC: 30%

## CC[C@H](C)[C@@H]1NC(=O)[C@H](N)CSSC[C@@H](C(=O)O)NC(=O)[C@H](CC(C)C)NC(=O)[C@H](Cc2c[nH]cn2)NC(=O)[C@H](CC(=O)O)NC1=O [dC*IDHLC*]
From H-dCys(Acm)-Ile-Asp-His-Leu-Cys(Acm)-OH, disulfide bond, AgOTf/anisole/TFA, then DMSO/HCl, 50% DMSO-1N HCl, 2 steps
  ring closure, yield after HPLC: 39%

## C*IDSLC*
[1]
  ring closure, yield after HPLC: 62%

## C*IDTLC*
[1]
  ring closure, yield after HPLC: 70%

## C*IDYLC*
Disulfide bond, K3[Fe(CN)6]/NH3 pH 7.5-8, water, 0.43 mM
  ring closure, yield after HPLC: 61%

## D(CO—)ChgMet(O2)PhgLDpr(NH—)
[2]
  ring closure, yield after HPLC: 7%

## D(CO—)ChgMet(O2)dPhgLDpr(NH—)
[2]
  ring closure, yield after HPLC: 10%
